The target of this test is T1, MeCP2-TBL1 interaction (MeCP2-SmBiT / TBL1-LgBiT) (Mus musculus, UniProt Q9QXE7).
T1 construct: expressed in transfected cells; crude lysate used as a cell-free assay
T1 sequence (Q9QXE7 166-527): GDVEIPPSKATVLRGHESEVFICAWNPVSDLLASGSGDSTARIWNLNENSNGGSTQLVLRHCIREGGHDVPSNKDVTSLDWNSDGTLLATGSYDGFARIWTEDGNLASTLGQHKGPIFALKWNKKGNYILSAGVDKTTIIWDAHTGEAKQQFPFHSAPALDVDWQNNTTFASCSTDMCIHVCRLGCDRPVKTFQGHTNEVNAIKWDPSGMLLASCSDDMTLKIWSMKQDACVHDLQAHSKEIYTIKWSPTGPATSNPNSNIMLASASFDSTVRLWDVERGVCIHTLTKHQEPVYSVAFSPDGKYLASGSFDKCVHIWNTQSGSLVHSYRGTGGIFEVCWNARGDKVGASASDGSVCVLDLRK
Description: MeCP2-TBL1 NanoLuc luciferase complementation assay (cell-free, extracts of transfected HEK293 cells).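 Note: each compound tested at 20 µM final concentration.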 Format: binding, human. The essentials: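 Cell-free split NanoLuc: lysate of HEK293 cells co-expressing the MeCP2 C-terminal half-SmBiT and TBL1 WD domain-LgBiT, mixed 1:1 with furimazine. After 30 min at room temperature, luminescence was plate-median normalized.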

Where [1] appears, read: primary screen of the Asinex library, sheet "Sargen output Asinex library", one well per compound, Batch Ref. 1.
[2] abbreviates: primary screen of Asinex library, single well per compound.
[3] abbreviates: primary screen of the Asinex library, sheet "Sargen output Asinex library", one well per compound.

The structures appear in SMILES notation.

In the case of `Cn1c(=O)n(C)c2cc(CCC(=O)N3CCCCC3CCNC(=O)c3ccccc3)ccc21` (stereo not drawn) [BDH_33628839], the Inhibition percent under setting [1] was -0.76%.
In the case of `C[C@]12C[C@@H](Cc3ccccc3)N(C(=O)c3ccc(OCCN4CCCCC4)cc3)[C@H]1CCCC(=O)N2` [BDH_33629014], the Inhibition percent under setting [2] is recorded as -1.82.
As to `Cc1cc(O)cc(=O)n1CCC(=O)N1CCCCC1C1CCN(C(=O)Cc2ccccc2F)CC1` (stereo not drawn) [BDH_33629102], under setting [1], the Inhibition percent is reported as -1.24%.
Regarding `CNC(=O)c1sc2nc(C3CCCCN3C(=O)CCCNc3ncccn3)ccc2c1N` (stereo not drawn) [BDH_33629130], under setting [1], the Inhibition percent is listed as -2.07%.
With `CNc1nc(C2CCCCN2C(=O)CCNc2nc(C)cc(C)n2)nc2c1CCN(C(C)=O)C2` (stereo not drawn) [BDH_33629184], the Inhibition percent under setting [3] is listed as -0.36%.
`CN1C(=O)N(CC(=O)N2CCCCC2CCNC(=O)c2ccccc2)C(=O)C12CCCCC2` (stereo not drawn) [BDH_33629465]: under setting [2], the Inhibition percent turned out to be 1.86.
Consider `O=C(NCCC1CCCCN1C(=O)CCN1C(=O)COc2ccc(Cl)cc21)c1ccccc1` (stereo not drawn) [BDH_33629495], for which the Inhibition percent under setting [1] is reported as -0.39%.
With `C[C@]12C[C@@H](Cc3ccccc3)N(C(=O)c3ccc(OCCN4CCCC4)cc3)[C@H]1CCCC(=O)N2` [BDH_33629575], the Inhibition percent under setting [1] is recorded as -1.81%.
The same measure, in the same setting: the figure for `C[C@]12C[C@@H](Cc3ccccc3)N(C(=O)C3CCN(Cc4cccnc4)CC3)[C@H]1CCCC(=O)N2` [BDH_33630330] is -0.000826%; for `CC(=O)N1CCCCC[C@@H]2[C@@H]1C[C@@H](Cc1ccccc1)N2C(=O)c1cccc(Cn2cncn2)c1` [BDH_33630828] it is -0.42%.
The same measure, in the same setting: then `C[C@]12C[C@@H](Cc3ccccc3)N(C(=O)c3ccc(NCc4cccnc4)cc3)[C@H]1CCCC(=O)N2` [BDH_33630910], with 7.42%; and `Cc1cc2ncn(CCC(=O)N3[C@H](Cc4ccccc4)C[C@]4(C)NC(=O)CCC[C@H]34)c2cc1C` [BDH_33631266], with -1.89%.
In the case of `C[C@]12C[C@@H](c3cccc(C(F)(F)F)c3)N(C(=O)CCc3nc4ccccc4[nH]3)[C@H]1CCCCC(=O)N2` [BDH_33631539], the Inhibition percent under setting [2] was -2.28.
Turning to `O=C(NCCC1CCCCN1C(=O)CCn1cnc2ccccc21)c1ccccc1` (stereo not drawn) [BDH_33631954], the Inhibition percent under setting [1] was -1.65%.
Regarding `CC(C)c1nccn1CCC(=O)N1[C@H](Cc2ccccc2)C[C@]2(C)NC(=O)CCC[C@H]12` [BDH_33632337], the Inhibition percent under setting [3] is listed as 1.15%.
`COc1cc2c(cc1[C@H]1C[C@@H](NC(C)=O)CC3(CCCCC3)O1)OCCCO2` [BDH_33665894]: the Inhibition percent under setting [1] is 2.60%.
Regarding `COc1cccc([C@H]2C[C@@](C)(NC(=O)C(C)C)[C@@H]3CC[C@@H](C)C[C@H]3O2)c1OCCN(C)C` [BDH_33687810], the Inhibition percent under setting [3] was -1.87%.
Take `CC(C)(O)[C@@H]1CC[C@](C)([C@H]2CC3(CCN(C(=O)c4ccc(-c5ccc(S(C)(=O)=O)cc5)cc4)CC3)CO2)O1` [BDH_33696510]: the Inhibition percent under setting [1] stood at 0.0118%.
Regarding `COc1cccc(CN2CCC3(C/C=C/COc4ccccc4C(=O)NCCNC3=O)CC2)c1F` [BDH_33701964], under setting [1], the Inhibition percent is given as -0.89%.
For the compound `O=C1NCCNC(=O)C2(C/C=C/COc3ccccc31)CCN(C(=O)CCc1cccs1)CC2` [BDH_33701979], the Inhibition percent under setting [1] stood at 4.94%.
For `O=C1CNC(=O)C2(C/C=C/C[C@H]3COCC[C@H]3N1)CCN(c1ncccn1)CC2` [BDH_33727647], the Inhibition percent under setting [2] is -1.79.
In the case of `O=C1CNC(=O)C2(C/C=C/C[C@H]3COCC[C@H]3N1)CCN(C(=O)/C=C/c1ccccc1)CC2` [BDH_33728358], the Inhibition percent under setting [3] is -2.28%.
The same measure, in the same setting: then `O=C1CNC(=O)C2(C/C=C/C[C@H]3COCC[C@@H]3N1)CCN(C(=O)COc1ccccc1)CC2` [BDH_33728395], with -3.47%; and `Cc1ncc(C(=O)N2CCC[C@@H]3[C@H]2C/C=C/Cc2ccccc2OCC(=O)N3C)c(C)n1` [BDH_33728424], with -2.62%.
Take `Cc1nc(C(=O)N2CCCC3(C/C=C/COc4ccccc4C(=O)NCCNC3=O)C2)co1` (stereo not drawn) [BDH_33731677]: the Inhibition percent under setting [1] is recorded as -0.08%.
For `CC(=O)N1CCC2(C/C=C/C[C@H]3CN(C(=O)Cc4cccc(F)c4)CC[C@H]3NC(=O)CNC2=O)CC1` [BDH_33732909], under setting [3], the Inhibition percent is -2.58%.
On to `Cc1nn(C)cc1CCC(=O)N1CCC[C@@H]2NC(=O)c3ccccc3OCCCCC[C@@H]21` [BDH_33734258], for which, under setting [2], the Inhibition percent is recorded as -1.51.
Turning to `O=C1COc2ccccc2CCCC[C@@H]2CN(C(=O)CCCn3cccn3)CC[C@H]2N1` [BDH_33762630], the Inhibition percent under setting [3] came out at 0.76%.
Consider `CC(C)C[C@H](NC(=O)OCc1ccccc1)C(=O)N1CCC2(CC1)CO[C@@H]([C@@]1(C)CC[C@H](O)C(C)(C)O1)C2` [BDH_33767587], for which, under setting [3], the Inhibition percent was -2.43%.
In the case of `Cc1cnn(CC(=O)N2CCC3(C/C=C/CCOc4ccccc4C(=O)NCCCNC3=O)CC2)c1` [BDH_33775476], the Inhibition percent under setting [1] is given as 1.29%.
Turning to `Cn1nccc1CN[C@@H]1C[C@@H](Oc2ccccc2)[C@H](O)[C@H]1N1CCN(c2ccccc2)CC1` [BDH_33787192], under setting [2], the Inhibition percent is given as -0.36.
With `C[C@@]12C[C@H](c3ccccc3)N(C(=O)CCc3c[nH]c4ccccc34)[C@@H]1CCC[C@@H](O)[C@H]2O` [BDH_33903568], under setting [1], the Inhibition percent worked out at 3.00%.
On the same count and under the same terms, then `CC(C)(C)OC(=O)N1[C@@H](CNC(=O)CCc2c[nH]c3ccccc23)C[C@@]2(C)[C@@H](O)CCCC[C@@H]12` [BDH_33903570], with 3.52%.
Take `CN(C)c1ccccc1C(=O)N(C)[C@H]1CC[C@@]2(CCO)C[C@H](c3ccccc3)C[C@](C)(O2)[C@@H]1O` [BDH_33903744]: the Inhibition percent under setting [2] was 1.99.
Same read-out and setting: then `C[C@@]12C[C@H](c3ccccc3)N(C(=O)CCCn3cccn3)[C@@H]1CCC[C@@H](O)[C@@H]2O` [BDH_33903800], with 0.83.
Consider `CC(C)(C)OC(=O)NCCC(=O)N(Cc1ccccc1)C[C@@H]1C[C@@H](n2ccc(=O)[nH]c2=O)[C@@H](O)[C@@H]1O` [BDH_33952010], for which, under setting [3], the Inhibition percent is listed as -1.46%.
Take `CC(C)=CCC[C@]1(C)Oc2c(OCCOCCO)cccc2[C@H]2O[C@H]3CCN(C(=O)OC(C)(C)C)C[C@@H]3C[C@@H]21` [BDH_33957239]: the Inhibition percent under setting [1] is given as 4.83%.
The same measure, in the same setting: the figure for `CC(C)=CCC[C@]1(C)Oc2cc(OCC(N)=O)ccc2[C@H]2OC[C@@]3(CCCN(C(=O)OC(C)(C)C)C3)C[C@@H]21` [BDH_33958782] is 7.79%.
With `CC(C)=CCC[C@]1(C)Oc2cc(OCC(=O)O)ccc2[C@H]2OCC3(CCN(C(=O)OC(C)(C)C)CC3)C[C@@H]21` [BDH_33958802], the Inhibition percent under setting [3] is on record as 4.22%.
For `CC(C)(C)OC(=O)N(Cc1ccccc1)C[C@@H]1C[C@H](O)[C@H](O)[C@H]1n1cnc2c(N)ncnc21` [BDH_34018090], the Inhibition percent under setting [3] was -1.62%.
`O=C(NCCc1ccccc1)[C@@H]1[C@H](O)[C@@H](c2ccc(F)cc2)CN1C(=O)Cc1c[nH]c2ccccc12` [BDH_34023215]: the Inhibition percent under setting [2] worked out at 2.61.
As to `CCCCC[C@]1(O)CCN(S(=O)(=O)c2ccccc2)C[C@@H]1Oc1cccc(F)c1` [BDH_34032183], under setting [1], the Inhibition percent came out at 9.13%.
In the case of `CC(C)C[C@H]1CN(C(=O)CCn2c(=O)oc3cc(Cl)ccc32)CC[C@H]1Nc1cccc(F)c1` [BDH_34035644], the Inhibition percent under setting [1] is recorded as 1.76%.
Regarding `COCCC(=O)N[C@@]1(C)C[C@@H](c2ccc(F)cc2)O[C@@H](c2ccc(N3CCCC3=O)cc2)C1` [BDH_34036118], under setting [2], the Inhibition percent was determined as 3.23.
With `COCCC(=O)N[C@]1(C)C[C@@H](c2ccc(Cl)cc2)O[C@@H](c2cc(Br)ccc2O)C1` [BDH_34036884], the Inhibition percent under setting [2] stood at 5.22.
As to `CN(C)CCOc1ccc(C(=O)N(C)CC2(O)CCCN(c3ccnc4ccncc34)C2)cc1` (stereo not drawn) [BDH_34040371], under setting [2], the Inhibition percent was -4.15.
Turning to `CCc1nnsc1C(=O)NC[C@]1(c2ccccc2)CC[C@@H](O)[C@H](N2CCOCC2)CC1` [BDH_34124703], the Inhibition percent under setting [3] is 0.50%.
As for `COc1cccc(C2CN(Cc3ccccc3)C(=O)C23CCN(Cc2cccc(C(=O)O)c2)CC3)c1` (stereo not drawn) [BDH_34129947], under setting [2], the Inhibition percent was -0.66.
On to `COc1cccc(C2CN(Cc3ccccc3)C(=O)C23CCN(Cc2ccc(C(=O)O)cc2)CC3)c1` (stereo not drawn) [BDH_34130105], for which the Inhibition percent under setting [2] stood at 0.45.
`COc1cccc(C2CN(Cc3ccccc3)C(=O)C23CCN(Cc2ccccc2C(=O)O)CC3)c1` (stereo not drawn) [BDH_34130263]: under setting [2], the Inhibition percent came to 5.00.
On to `CC1(C)Oc2ccccc2[C@@H]2O[C@@H]3CCN(C(=O)c4cccc(Cn5ccnc5)c4)C[C@]3(CO)C[C@H]21` [BDH_34133896], for which the Inhibition percent under setting [1] was 6.91%.
Consider `CC(=O)N1CCC(C(=O)N[C@@H]2C[C@@H](Oc3cccc(F)c3)[C@H](O)[C@H]2N(C)Cc2ccccc2)CC1` [BDI_34055064], for which the Inhibition percent under setting [3] is 0.18%.
As to `COc1ccc(CN(C)[C@@H]2[C@@H](O)[C@H](Oc3cccc(F)c3)C[C@H]2NC(=O)CCC(N)=O)cc1` [BDI_34058033], under setting [1], the Inhibition percent was -0.09%.
Same read-out and setting: the figure for `CN(Cc1ccccc1)[C@@H]1[C@@H](O)[C@H](Oc2cccc(C(F)(F)F)c2)C[C@H]1NC(=O)c1cocn1` [BDI_34061115] is 4.93%.
